In publication PMC4197335, “Cancer-Selective Targeting of the NF-κB Survival Pathway with GADD45β/MKK7 Inhibitors” (Cancer Cell, 2014):
Where two headings read alike, the source gives them in different places. Where a SMILES comes first, the peptide text is derived from it. [ ]: non-standard residue; d: D form. The star is where a group is joined. Benzoyl(3-OH,4-OMe) = COc1ccc(C(=O)*)cc1O; ClZ = O=C(OCc1ccccc1Cl)*; Cbz = O=C(OCc1ccccc1)*

Target: T1, GADD45β/MKK7 complex (Homo sapiens, UniProt O14733)
T1 construct: Full-length human (h)MKK7 was expressed as a protein fused to an N-terminal GST tag (GST-MKK7); made in house
T1 sequence (O14733 1-419): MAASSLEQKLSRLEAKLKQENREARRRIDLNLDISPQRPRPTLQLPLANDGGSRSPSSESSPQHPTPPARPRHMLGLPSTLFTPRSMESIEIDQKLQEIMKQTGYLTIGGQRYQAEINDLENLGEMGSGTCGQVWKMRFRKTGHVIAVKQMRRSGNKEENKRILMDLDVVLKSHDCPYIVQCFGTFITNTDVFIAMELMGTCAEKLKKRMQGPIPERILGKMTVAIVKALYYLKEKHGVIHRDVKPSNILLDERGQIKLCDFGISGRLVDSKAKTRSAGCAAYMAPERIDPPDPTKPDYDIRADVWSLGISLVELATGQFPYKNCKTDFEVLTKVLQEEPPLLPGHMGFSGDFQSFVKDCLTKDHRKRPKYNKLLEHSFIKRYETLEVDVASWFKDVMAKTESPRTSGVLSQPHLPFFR
Test: ELISA GADD45β/MKK7 competition assay
Type: binding
From the text: Additional details are provided in Supplemental Experimental Procedures.
(1:1,000) and the HRP chromogenic substrate, o -phenylenediamine (OPD). GST -coated wells wer e […]
The ELISA competition screen used f or the isolation of antagonists of the GADD45β /MKK7 […]
The library deconvolution strategy used for this screen was described previously […]
General information about this type of screens can be found elsewhere […]
Values were expressed as the percentage of inhibition of His6-hGADD45β binding to GST-hMKK7 relative to the binding measured in the absence of […]
Dose-response, ELISA GADD45β /MKK7 competition assays were carried out under similar […]
As part of the SAR analysis and lead optimization process, where appropriate, competitors were tested at a concentration up to 100 nM. In order to determine their stability in biolog ical f luids , peptides were incubated at the concentration of 10 µM in […]
calculated using at least 7 concentrations of peptide and def ined as the mean concentration of peptide […]
the absence of competitor. W here indicated, values were expressed as the percentage of inhibition of His 6 -hGADD45β binding to GST-hMKK7 relative to the binding measured in the absence of competitor.
GST was used as a control in all the experiments. […]
tetrapeptide used as negative control in some of the ELISA and cellular assays was as f ollows: z -DNC, z-T yr -Asp-His-Gln-NH 2 . […]

[1] = Table S4, values marked (#), peptide at 42 nM, read-out: % inhibition of (ELISA)
[2] = Table S4, values marked (##), peptide at 10 nM, read-out: % inhibition of (ELISA)
[3] = Table S2, peptide at 42 nM, read-out: % inhibition (ELISA)
[4] = Table S4, read-out: IC50s (ELISA)
[5] = Table S3, peptide at 10 nM, read-out: % inhibition (ELISA)
[6] = Table S3, read-out: IC50 (ELISA)
[7] = Figure 3A, before preincubation with human serum, read-out: IC50
[8] = Figure 3B, after a 48 hr preincubation with human serum, read-out: IC50

## CC(=O)N[C@H](Cc1ccc(O)cc1)C(=O)N[C@H](CCC(=O)O)C(=O)N[C@H](C)C(=O)N[C@H](Cc1ccccc1)C(N)=O [Ac-YEAF-NH2] (Ac-[dY][dE][dA][dF]-NH2)
[1]
  inhibition at 0.042 µM: 13%

## CC(=O)N1CCCC1C(=O)NC(CCC(=O)O)C(=O)NC(CCCNC(=N)N)C(=O)NC(Cc1ccccc1)C(N)=O (centres unmarked) [Ac-PERF-NH2] (Ac-PERF-NH2; configuration not given here)
[2]
  inhibition at 0.01 µM: 24%

## CC(=O)N[C@@H](Cc1ccc(O)cc1)C(=O)N[C@@H](CCC(=O)O)C(=O)N[C@@H](CCCCN)C(=O)N[C@@H](Cc1ccccc1)C(N)=O [Ac-YEKF-NH2] (Ac-YEKF-NH2)
[3]
  inhibition at 0.042 µM: 64%
[4]
  IC50: < 42 nM

## COc1ccc(C(=O)N[C@H](Cc2ccc(O)cc2)C(=O)N[C@H](CC(=O)O)C(=O)N[C@H](Cc2c[nH]cn2)C(=O)N[C@H](CCC(N)=O)C(N)=O)cc1O ({Benzoyl(3-OH,4-OMe)}-[dY][dD][dH][dQ]-NH2)
read-out: % inhibition (ELISA)
  inhibition at 0.01 µM: 7%

## CC(=O)N[C@@H](Cc1c[nH]c2ccccc12)C(=O)N[C@@H](CCC(=O)O)C(=O)N[C@@H](CCCNC(=N)N)C(=O)N[C@@H](Cc1ccccc1)C(N)=O [Ac-WERF-NH2] (Ac-WERF-NH2)
[3]
  inhibition at 0.042 µM: 28%
[4]
  IC50: > 42 nM

## Ac-YDRF-NH2
Table S2, peptide at 42 nM
  % inhibition (ELISA): 45%

## NC(=O)[C@@H](Cc1ccccc1)NC(=O)[C@@H](Cc1c[nH]cn1)NC(=O)[C@@H](CC(=O)O)NC(=O)[C@@H](Cc1ccc(O)cc1)NC(=O)OCc1ccccc1Cl [2CI-z-YDHF-NH2] (ClZ-[dY][dD][dH][dF]-NH2)
[5]
  inhibition at 0.01 µM: 38%
[6]
  IC50: > 10 nM

## COC(=O)C[C@@H](NC(=O)[C@@H](Cc1ccc(O)cc1)NC(=O)OCc1ccccc1)C(=O)N[C@H](Cc1c[nH]cn1)C(=O)N[C@H](Cc1ccccc1)C(N)=O [z-YD(O-methyl)HF-NH2] (Cbz-[dY][dD](OMe)[dH][dF]-NH2)
[5]
  inhibition at 0.01 µM: 84%
[6]
  IC50: > 10 nM

## Ac-YDKF-NH2
Table S2, peptide at 42 nM
  % inhibition (ELISA): 34%

## Ac-WEHF-NH2
Table S2, peptide at 42 nM
  % inhibition (ELISA): 35%

## Ac-YEHF-NH2
Table S2, peptide at 42 nM
  % inhibition (ELISA): 52%

## NC(=O)[C@@H](Cc1ccccc1)NC(=O)[C@@H](Cc1c[nH]cn1)NC(=O)[C@@H](CC(=O)O)NC(=O)[C@@H](Cc1ccc(O)cc1)NC(=O)OCc1ccccc1 [z-DTP1, z-YDHF-NH2] (Cbz-[dY][dD][dH][dF]-NH2)
[5]
  inhibition at 0.01 µM: 84%

## COc1ccc(C(=O)N[C@H](Cc2ccc(O)cc2)C(=O)N[C@H](CCC(=O)O)C(=O)N[C@H](CCCNC(=N)N)C(=O)N[C@H](Cc2ccccc2)C(N)=O)cc1O ({Benzoyl(3-OH,4-OMe)}-[dY][dE][dR][dF]-NH2)
read-out: % inhibition (ELISA)
  inhibition at 0.01 µM: 86%

## CC(=O)N[C@H](Cc1ccc(O)cc1)C(=O)N[C@H](CC(=O)O)C(=O)N[C@H](Cc1c[nH]cn1)C(=O)N[C@H](Cc1ccccc1)C(=O)N[C@H](CCCCNC(=O)OCc1ccccc1)C(N)=O [Ac-YDHFK(εZ)-NH2] (Ac-[dY][dD][dH][dF][dK](Cbz)-NH2)
[5]
  inhibition at 0.01 µM: 8%
[6]
  IC50: > 10 nM

## NC(=O)[C@@H](Cc1ccccc1)NC(=O)[C@@H](Cc1c[nH]cn1)NC(=O)[C@@H](CC(=O)O)NC(=O)[C@@H](Cc1ccc(O)cc1)NC(=O)OCC1c2ccccc2-c2ccccc21 [Fmoc-YDHF-NH2]
[5]
  inhibition at 0.01 µM: 58%
[6]
  IC50: < 10 nM

## CC(=O)N[C@H](Cc1ccc(O)cc1)C(=O)N[C@H](C)C(=O)N[C@H](CCCNC(=N)N)C(=O)N[C@H](Cc1ccccc1)C(N)=O [Ac-YARF-NH2] (Ac-[dY][dA][dR][dF]-NH2)
read-out: % inhibition of (ELISA)
  inhibition at 0.042 µM: 17%

## CC(=O)N[C@@H](Cc1c[nH]c2ccccc12)C(=O)N[C@@H](CCC(=O)O)C(=O)N[C@@H](CCCCN)C(=O)N[C@@H](Cc1ccccc1)C(N)=O [Ac-WEKF-NH2] (Ac-WEKF-NH2)
[3]
  inhibition at 0.042 µM: 65%
[4]
  IC50: < 42 nM

## Ac-YERW-NH2
Table S2, peptide at 42 nM
  % inhibition (ELISA): 27%

## COc1ccc(C(=O)N[C@H](Cc2ccc(O)cc2)C(=O)N[C@H](CC(=O)O)C(=O)N[C@H](Cc2c[nH]cn2)C(=O)N[C@H](Cc2ccccc2)C(N)=O)cc1O ({Benzoyl(3-OH,4-OMe)}-[dY][dD][dH][dF]-NH2)
read-out: % inhibition (ELISA)
  inhibition at 0.01 µM: 81%

## NC(=O)CC[C@@H](NC(=O)[C@@H](Cc1c[nH]cn1)NC(=O)[C@@H](CC(=O)O)NC(=O)[C@@H](Cc1ccc(O)cc1)NC(=O)OCc1ccccc1)C(N)=O [z-DNC, z-YDHQ-NH2] (Cbz-[dY][dD][dH][dQ]-NH2)
[5]
  inhibition at 0.01 µM: 12%

## CC(=O)N[C@H](Cc1ccc(O)cc1)C(=O)N[C@H](CCC(=O)O)C(=O)N[C@H](CCCNC(=N)N)C(=O)N[C@H](C)C(N)=O [Ac-YERA-NH2] (Ac-[dY][dE][dR][dA]-NH2)
[2]
  inhibition at 0.01 µM: 28%

## CC(=O)N[C@@H](Cc1c[nH]c2ccccc12)C(=O)N[C@@H](CC(=O)O)C(=O)N[C@@H](CCCCN)C(=O)N[C@@H](Cc1ccccc1)C(N)=O [Ac-WDKF-NH2] (Ac-WDKF-NH2)
[3]
  inhibition at 0.042 µM: 25%

## CC(=O)N[C@H](Cc1ccc(O)cc1)C(=O)N[C@H](CCC(=O)O)C(=O)N[C@H](CCCNC(=N)N)C(=O)N[C@H](Cc1ccccc1)C(N)=O [Ac-DTP2, Ac-Tyr-Glu-Arg-Phe-NH2]
[7]
  IC50: 0.22 nM
[8]
  IC50: 0.22 nM

## CC(=O)NC(C)C(=O)NC(CCC(=O)O)C(=O)NC(CCCNC(=N)N)C(=O)NC(Cc1ccccc1)C(N)=O (centres unmarked) [Ac-AERF-NH2] (Ac-AERF-NH2; configuration not given here)
[1]
  inhibition at 0.042 µM: 7%

## Ac-YDRW-NH2
Table S2, peptide at 42 nM
  % inhibition (ELISA): 43%

## CC(=O)N[C@H](Cc1ccc(O)cc1)C(=O)N[C@H](CCC(=O)O)C(=O)N1CCC[C@@H]1C(=O)N[C@H](Cc1ccccc1)C(N)=O [Ac-YEPF-NH2] (Ac-[dY][dE][dP][dF]-NH2)
[1]
  inhibition at 0.042 µM: 13%

## CC(=O)N[C@@H](Cc1ccc(O)cc1)C(=O)N[C@@H](CCC(=O)O)C(=O)N[C@@H](Cc1c[nH]cn1)C(=O)N[C@@H](Cc1c[nH]c2ccccc12)C(N)=O [Ac-YEHW-NH2] (Ac-YEHW-NH2)
[3]
  inhibition at 0.042 µM: 64%
[4]
  IC50: < 42 nM

## CC(=O)N[C@H](Cc1ccc(O)cc1)C(=O)N[C@H](CC(=O)O)C(=O)N[C@H](Cc1c[nH]cn1)C(=O)N[C@H](Cc1ccccc1)C(N)=O [Ac-DTP1, Ac-Tyr-Asp-His-Phe-NH2]
[7]
  IC50: 0.19 nM
[8]
  IC50: 0.2 nM

## CC(=O)N[C@@H](Cc1ccc(O)cc1)C(=O)N[C@@H](CC(=O)O)C(=O)N[C@@H](CCCCN)C(=O)N[C@@H](Cc1c[nH]c2ccccc12)C(N)=O [Ac-YDKW-NH2] (Ac-YDKW-NH2)
[3]
  inhibition at 0.042 µM: 43%
[4]
  IC50: > 10 nM

## Ac-WDHW-NH2
Table S2, peptide at 42 nM
  % inhibition (ELISA): 50%

## CC(=O)N[C@@H](Cc1c[nH]c2ccccc12)C(=O)N[C@@H](CCC(=O)O)C(=O)N[C@@H](CCCCN)C(=O)N[C@@H](Cc1c[nH]c2ccccc12)C(N)=O [Ac-WEKW-NH2] (Ac-WEKW-NH2)
[3]
  inhibition at 0.042 µM: 58%
[4]
  IC50: < 42 nM

## NC(=O)[C@@H](Cc1ccccc1)NC(=O)[C@@H](Cc1c[nH]cn1)NC(=O)[C@H](N)Cc1ccc(O)cc1 [H-YHF-NH2]
[4]
  IC50: 0.65 nM

## CC(=O)N[C@@H](Cc1ccc(O)cc1)C(=O)N[C@@H](CC(=O)O)C(=O)N[C@@H](Cc1c[nH]cn1)C(=O)N[C@@H](Cc1ccccc1)C(N)=O [Ac-LTP1, Ac-YDHF-NH2]
[7]
  IC50: 0.4 nM
[8]
  IC50: > 10 nM
[3]
  inhibition at 0.042 µM: 94%

## CC(=O)N[C@@H](Cc1ccc(O)cc1)C(=O)N[C@@H](CCC(=O)O)C(=O)N[C@@H](CCCNC(=N)N)C(=O)N[C@@H](Cc1ccccc1)C(N)=O [Ac-LTP2, Ac-YERF-NH2]
[8]
  IC50: > 10 nM
[3]
  inhibition at 0.042 µM: 93%
[4]
  IC50: 0.4 nM

## N=C(N)NCCC[C@@H](NC(=O)[C@@H](CCC(=O)O)NC(=O)[C@@H](Cc1ccc(O)cc1)NC(=O)OCC1c2ccccc2-c2ccccc21)C(=O)N[C@H](Cc1ccccc1)C(N)=O [Fmoc-YERF-NH2]
[5]
  inhibition at 0.01 µM: 60%
[6]
  IC50: < 10 nM

## CC(=O)N[C@H](Cc1ccc(O)cc1)C(=O)N[C@H](CCC(=O)O)C(=O)N[C@H](CCCNC(=N)N)C(=O)N1CCC[C@@H]1C(N)=O [Ac-YERP-NH2] (Ac-[dY][dE][dR][dP]-NH2)
[1]
  inhibition at 0.042 µM: 0%

## Ac-YDHW-NH2
Table S2, peptide at 42 nM
  % inhibition (ELISA): 57%

## COC(=O)C[C@@H](NC(=O)[C@@H](Cc1ccc(O)cc1)NC(=O)OCc1ccccc1)C(=O)N[C@H](Cc1c[nH]cn1)C(=O)N[C@H](CCC(N)=O)C(N)=O [z-YD(O-methyl)HQ-NH2] (Cbz-[dY][dD](OMe)[dH][dQ]-NH2)
[5]
  inhibition at 0.01 µM: 3%
[6]
  IC50: > 10 nM
